Experimental data reported in the NIST ThermoML archive (doi:10.1016/j.jct.2012.03.003).
Numbers after ± are expanded uncertainties.

Experiment: xn = mol fraction of the nth substance listed
Conditions: Liquid, Vibrating tube method

COc1cc2c(cc1O)CC1c3c(cc(O)c(OC)c3-2)CCN1C (stereo not given) [boldine] + CCO
Conditions | mass density [kg/m3]
342.92 K, 18000 kPa, x1 = 0.0074 | 778.92 ± 0.92
342.92 K, 19000 kPa, x1 = 0.0012 | 767.14 ± 0.91
342.92 K, 19000 kPa, x1 = 0.0074 | 779.83 ± 0.92
342.92 K, 20000 kPa, x1 = 0.0012 | 768.07 ± 0.91
342.92 K, 20000 kPa, x1 = 0.0074 | 780.71 ± 0.93
343.02 K, 1000 kPa, x1 = 0.0136 | 775.25 ± 0.96
343.02 K, 2000 kPa, x1 = 0.0136 | 776.31 ± 0.96
343.02 K, 3000 kPa, x1 = 0.0136 | 777.37 ± 0.96
343.02 K, 4000 kPa, x1 = 0.0136 | 778.42 ± 0.96
343.02 K, 5000 kPa, x1 = 0.0136 | 779.47 ± 0.96
343.02 K, 6000 kPa, x1 = 0.0136 | 780.52 ± 0.96
343.02 K, 7000 kPa, x1 = 0.0136 | 781.56 ± 0.97
343.02 K, 8000 kPa, x1 = 0.0136 | 782.6 ± 0.97
343.02 K, 9000 kPa, x1 = 0.0136 | 783.63 ± 0.97
343.02 K, 10000 kPa, x1 = 0.0136 | 784.63 ± 0.97
343.02 K, 11000 kPa, x1 = 0.0136 | 785.65 ± 0.97
343.02 K, 12000 kPa, x1 = 0.0136 | 786.65 ± 0.97
343.02 K, 13000 kPa, x1 = 0.0136 | 787.64 ± 0.97
343.02 K, 14000 kPa, x1 = 0.0136 | 788.62 ± 0.97
343.02 K, 15000 kPa, x1 = 0.0136 | 789.58 ± 0.98
343.02 K, 16000 kPa, x1 = 0.0136 | 790.53 ± 0.98
343.02 K, 17000 kPa, x1 = 0.0136 | 791.46 ± 0.98
343.02 K, 18000 kPa, x1 = 0.0136 | 792.39 ± 0.98
343.02 K, 19000 kPa, x1 = 0.0136 | 793.28 ± 0.98
343.02 K, 20000 kPa, x1 = 0.0136 | 794.17 ± 0.99
352.79 K, 1000 kPa, x1 = 0.0196 | 780.8 ± 0.84
352.79 K, 2000 kPa, x1 = 0.0196 | 781.92 ± 0.84
352.79 K, 3000 kPa, x1 = 0.0196 | 783.03 ± 0.84
352.79 K, 4000 kPa, x1 = 0.0196 | 784.09 ± 0.84
352.79 K, 5000 kPa, x1 = 0.0196 | 785.23 ± 0.84
352.79 K, 6000 kPa, x1 = 0.0196 | 786.32 ± 0.84
352.79 K, 7000 kPa, x1 = 0.0196 | 787.4 ± 0.85
352.79 K, 8000 kPa, x1 = 0.0196 | 788.47 ± 0.85
352.79 K, 9000 kPa, x1 = 0.0196 | 789.53 ± 0.85
352.79 K, 10000 kPa, x1 = 0.0196 | 790.58 ± 0.85
352.79 K, 11000 kPa, x1 = 0.0196 | 791.62 ± 0.85
352.79 K, 12000 kPa, x1 = 0.0196 | 792.64 ± 0.85
352.79 K, 13000 kPa, x1 = 0.0196 | 793.65 ± 0.85
352.79 K, 14000 kPa, x1 = 0.0196 | 794.65 ± 0.86
352.79 K, 15000 kPa, x1 = 0.0196 | 795.64 ± 0.86
352.79 K, 16000 kPa, x1 = 0.0196 | 796.61 ± 0.86
352.79 K, 17000 kPa, x1 = 0.0196 | 797.57 ± 0.86
352.79 K, 18000 kPa, x1 = 0.0196 | 798.51 ± 0.86
352.79 K, 19000 kPa, x1 = 0.0196 | 799.44 ± 0.87
352.79 K, 20000 kPa, x1 = 0.0196 | 800.36 ± 0.87
352.81 K, 1000 kPa, x1 = 0.0012 | 738.74 ± 0.88
352.81 K, 1000 kPa, x1 = 0.0136 | 765.67 ± 0.96
352.81 K, 2000 kPa, x1 = 0.0012 | 739.95 ± 0.89
352.81 K, 2000 kPa, x1 = 0.0136 | 766.82 ± 0.96
352.81 K, 3000 kPa, x1 = 0.0012 | 741.15 ± 0.88
352.81 K, 3000 kPa, x1 = 0.0136 | 767.97 ± 0.96
352.81 K, 4000 kPa, x1 = 0.0012 | 742.33 ± 0.88
352.81 K, 4000 kPa, x1 = 0.0136 | 769.1 ± 0.96
352.81 K, 5000 kPa, x1 = 0.0012 | 743.51 ± 0.89
352.81 K, 5000 kPa, x1 = 0.0136 | 770.24 ± 0.96
352.81 K, 6000 kPa, x1 = 0.0012 | 744.68 ± 0.89
352.81 K, 6000 kPa, x1 = 0.0136 | 771.36 ± 0.96
352.81 K, 7000 kPa, x1 = 0.0012 | 745.85 ± 0.89
352.81 K, 7000 kPa, x1 = 0.0136 | 772.46 ± 0.96
352.81 K, 8000 kPa, x1 = 0.0012 | 746.99 ± 0.89
352.81 K, 8000 kPa, x1 = 0.0136 | 773.56 ± 0.96
352.81 K, 9000 kPa, x1 = 0.0012 | 748.13 ± 0.89
352.81 K, 9000 kPa, x1 = 0.0136 | 774.65 ± 0.96
352.81 K, 10000 kPa, x1 = 0.0012 | 749.26 ± 0.89
352.81 K, 10000 kPa, x1 = 0.0136 | 775.73 ± 0.97
352.81 K, 11000 kPa, x1 = 0.0012 | 750.37 ± 0.9
352.81 K, 11000 kPa, x1 = 0.0136 | 776.81 ± 0.97
352.81 K, 12000 kPa, x1 = 0.0012 | 751.47 ± 0.9
352.81 K, 12000 kPa, x1 = 0.0136 | 777.86 ± 0.97
352.81 K, 13000 kPa, x1 = 0.0012 | 752.55 ± 0.9
352.81 K, 13000 kPa, x1 = 0.0136 | 778.9 ± 0.97
352.81 K, 14000 kPa, x1 = 0.0012 | 753.61 ± 0.9
352.81 K, 14000 kPa, x1 = 0.0136 | 779.93 ± 0.97
352.81 K, 15000 kPa, x1 = 0.0012 | 754.67 ± 0.91
352.81 K, 15000 kPa, x1 = 0.0136 | 780.95 ± 0.97
